Measured values published in ChEMBL document CHEMBL1201862, “PubChem BioAssay data set” (2004).
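The compound was tested at five concentrations on cells cultured in 96-well plates, with a 48-hour exposure period. GI50 = concentration required for 50% inhibition of growth.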 Calls of active or inactive are those of the source. Rule as the data show it: active = GI50 up to about 1.1 µM and inactive = higher.

Experiments:
Assay in all cases: NCI anticancer screen, dose series, 48 h
786-0 = tested on: 786-0
A498 = tested on: A498
A549 = tested on: A549
ACHN = tested on: ACHN
BT-549 = tested on: BT-549
CAKI-1 = tested on: CAKI-1
CCRF-CEM = tested on: CCRF-CEM
COLO 205 = tested on: COLO 205
DU-145 = tested on: DU-145
EKVX = tested on: EKVX
HCC 2998 = tested on: HCC 2998
HCT-116 = tested on: HCT-116
HCT-15 = tested on: HCT-15
HL-60 = tested on: HL-60
HOP-62 = tested on: HOP-62
HOP-92 = tested on: HOP-92
HT-29 = tested on: HT-29
Hs-578T = tested on: Hs-578T
IGROV-1 = tested on: IGROV-1
K562 = tested on: K562
KM12 = tested on: KM12
LOX IMVI = tested on: LOX IMVI
M14 = tested on: M14
MCF7 = tested on: MCF7
MDA-MB-231 = tested on: MDA-MB-231
MDA-MB-435 = tested on: MDA-MB-435
MDA-N = tested on: MDA-N
MOLT-4 = tested on: MOLT-4
Malme-3M = tested on: Malme-3M
NCI-H226 = tested on: NCI-H226
NCI-H23 = tested on: NCI-H23
NCI-H460 = tested on: NCI-H460
NCI-H522 = tested on: NCI-H522
NCI/ADR-RES = tested on: NCI/ADR-RES
OVCAR-3 = tested on: OVCAR-3
OVCAR-4 = tested on: OVCAR-4
OVCAR-5 = tested on: OVCAR-5
OVCAR-8 = tested on: OVCAR-8
PC-3 = tested on: PC-3
RPMI-8226 = tested on: RPMI-8226
RXF 393 = tested on: RXF 393
SF-268 = tested on: SF-268
SF-295 = tested on: SF-295
SF-539 = tested on: SF-539
SK-MEL-28 = tested on: SK-MEL-28
SK-MEL-2 = tested on: SK-MEL-2
SK-MEL-5 = tested on: SK-MEL-5
SK-OV-3 = tested on: SK-OV-3
SN12C = tested on: SN12C
SNB-19 = tested on: SNB-19
SNB-75 = tested on: SNB-75
SR = tested on: SR
SW-620 = tested on: SW-620
T47D = tested on: T47D
TK-10 = tested on: TK-10
U-251 = tested on: U-251
UACC-257 = tested on: UACC-257
UACC-62 = tested on: UACC-62
UO-31 = tested on: UO-31

COc1ccc2nc3cccc([N+](=O)[O-])c3c(NCCC(=O)O)c2c1
GI50 (786-0): > 10 µM (inactive)
GI50 (A498): > 10 µM (inactive)
GI50 (A549): > 10 µM (inactive)
GI50 (ACHN): > 10 µM (inactive)
GI50 (BT-549): > 10 µM (inactive)
GI50 (CAKI-1): > 10 µM (inactive)
GI50 (CCRF-CEM): 6.67 µM (inactive)
GI50 (COLO 205): 7.59 µM (inactive)
GI50 (DU-145): > 10 µM (inactive)
GI50 (EKVX): > 10 µM (inactive)
GI50 (HCC 2998): > 10 µM (inactive)
GI50 (HCT-116): > 10 µM (inactive)
GI50 (HCT-15): > 10 µM
GI50 (HL-60): > 10 µM (inactive)
GI50 (HOP-62): > 10 µM (inactive)
GI50 (HOP-92): > 10 µM (inactive)
GI50 (HT-29): > 10 µM (inactive)
GI50 (Hs-578T): 9.14 µM (inactive)
GI50 (IGROV-1): > 10 µM (inactive)
GI50 (K562): > 10 µM (inactive)
GI50 (KM12): > 10 µM (inactive)
GI50 (LOX IMVI): > 10 µM (inactive)
GI50 (M14): > 10 µM (inactive)
GI50 (MCF7): 5.78 µM (inactive)
GI50 (MDA-MB-231): > 10 µM (inactive)
GI50 (MDA-MB-435): > 10 µM (inactive)
GI50 (MDA-N): > 10 µM (inactive)
GI50 (MOLT-4): 5.22 µM (inactive)
GI50 (Malme-3M): 4.51 µM (inactive)
GI50 (NCI-H226): > 10 µM (inactive)
GI50 (NCI-H23): > 10 µM (inactive)
GI50 (NCI-H460): > 10 µM (inactive)
GI50 (NCI-H522): 4.56 µM (inactive)
GI50 (NCI/ADR-RES): > 10 µM (inactive)
GI50 (OVCAR-3): > 10 µM (inactive)
GI50 (OVCAR-4): > 10 µM (inactive)
GI50 (OVCAR-5): > 10 µM (inactive)
GI50 (OVCAR-8): > 10 µM (inactive)
GI50 (PC-3): > 10 µM (inactive)
GI50 (RPMI-8226): > 10 µM (inactive)
GI50 (RXF 393): > 10 µM (inactive)
GI50 (SF-268): > 10 µM (inactive)
GI50 (SF-295): > 10 µM (inactive)
GI50 (SF-539): > 10 µM (inactive)
GI50 (SK-MEL-28): > 10 µM (inactive)
GI50 (SK-MEL-2): > 10 µM (inactive)
GI50 (SK-MEL-5): > 10 µM (inactive)
GI50 (SK-OV-3): > 10 µM (inactive)
GI50 (SN12C): > 10 µM (inactive)
GI50 (SNB-19): > 10 µM (inactive)
GI50 (SNB-75): > 10 µM (inactive)
GI50 (SR): > 10 µM (inactive)
GI50 (SW-620): > 10 µM (inactive)
GI50 (T47D): 7.5 µM (inactive)
GI50 (TK-10): > 10 µM (inactive)
GI50 (U-251): > 10 µM (inactive)
GI50 (UACC-257): > 10 µM (inactive)
GI50 (UACC-62): > 10 µM (inactive)

CC1=Nc2ccccc2/C1=C\c1c(C)[nH]c2ccccc12
GI50 (786-0): 12 µM (inactive)
GI50 (A498): 17.5 µM (inactive)
GI50 (A549): 23.1 µM (inactive)
GI50 (ACHN): 15.7 µM (inactive)
GI50 (BT-549): 3.55 µM (inactive)
GI50 (CAKI-1): 13.8 µM (inactive)
GI50 (CCRF-CEM): 5.04 µM (inactive)
GI50 (COLO 205): 19.1 µM (inactive)
GI50 (DU-145): 15.8 µM (inactive)
GI50 (EKVX): 12.2 µM (inactive)
GI50 (HCC 2998): 15.5 µM (inactive)
GI50 (HCT-116): 11.4 µM (inactive)
GI50 (HCT-15): 12.9 µM
GI50 (HL-60): 5.85 µM (inactive)
GI50 (HOP-62): 23.2 µM (inactive)
GI50 (HOP-92): 3.73 µM (inactive)
GI50 (HT-29): 12.8 µM (inactive)
GI50 (Hs-578T): 8.63 µM (inactive)
GI50 (IGROV-1): 12.5 µM (inactive)
GI50 (K562): 7.21 µM (inactive)
GI50 (KM12): 13.2 µM (inactive)
GI50 (LOX IMVI): 13.1 µM (inactive)
GI50 (M14): 23.2 µM (inactive)
GI50 (MCF7): 4.49 µM (inactive)
GI50 (MDA-MB-231): 13.4 µM (inactive)
GI50 (MDA-MB-435): 6.59 µM (inactive)
GI50 (MDA-N): 6.75 µM (inactive)
GI50 (MOLT-4): 3.4 µM (inactive)
GI50 (Malme-3M): 14.1 µM (inactive)
GI50 (NCI-H226): 15.2 µM (inactive)
GI50 (NCI-H23): 13 µM (inactive)
GI50 (NCI-H460): 17.8 µM (inactive)
GI50 (NCI-H522): 10 µM (inactive)
GI50 (NCI/ADR-RES): 16.2 µM (inactive)
GI50 (OVCAR-3): 12.6 µM (inactive)
GI50 (OVCAR-4): 12.4 µM (inactive)
GI50 (OVCAR-5): 23.4 µM (inactive)
GI50 (OVCAR-8): 12.4 µM (inactive)
GI50 (PC-3): 13.6 µM (inactive)
GI50 (RPMI-8226): 16.3 µM (inactive)
GI50 (RXF 393): 10.6 µM (inactive)
GI50 (SF-268): 11.2 µM (inactive)
GI50 (SF-295): 18.6 µM (inactive)
GI50 (SF-539): 24.5 µM (inactive)
GI50 (SK-MEL-28): 16.6 µM (inactive)
GI50 (SK-MEL-2): 17.8 µM (inactive)
GI50 (SK-MEL-5): 14.1 µM (inactive)
GI50 (SK-OV-3): 15.6 µM (inactive)
GI50 (SN12C): 21.4 µM (inactive)
GI50 (SNB-19): 16.6 µM (inactive)
GI50 (SNB-75): 18.7 µM (inactive)
GI50 (SR): 5.9 µM (inactive)
GI50 (SW-620): 11 µM (inactive)
GI50 (T47D): 9.53 µM (inactive)
GI50 (TK-10): 16.3 µM (inactive)
GI50 (U-251): 15.9 µM (inactive)
GI50 (UACC-257): 13.2 µM (inactive)
GI50 (UACC-62): 5.26 µM (inactive)
GI50 (UO-31): 13.6 µM (inactive)
